Test results: patent publication US20070066580A1, “Novel aldosterone antagonists and uses thereof” (Recordati Ireland Limited, priority 2005, published 2007)

Assays:
[1] = biological target: T1, ligand binding domain of the human mineralocorticoid receptor (hMR LBD) (Homo sapiens, UniProt P08235); test: Mineralocorticoid receptor (MR) in vitro competitive binding assay, [3H]aldosterone displacement; settings: IR^TOTAL = sum of IR^AR/MR, IR^ER/MR, IR^GR/MR, IR^PR/MR
T1 construct: made in house; host or cells: Sf9 insect cells (baculovirus, pFastBac)
T1 sequence (P08235 729-984): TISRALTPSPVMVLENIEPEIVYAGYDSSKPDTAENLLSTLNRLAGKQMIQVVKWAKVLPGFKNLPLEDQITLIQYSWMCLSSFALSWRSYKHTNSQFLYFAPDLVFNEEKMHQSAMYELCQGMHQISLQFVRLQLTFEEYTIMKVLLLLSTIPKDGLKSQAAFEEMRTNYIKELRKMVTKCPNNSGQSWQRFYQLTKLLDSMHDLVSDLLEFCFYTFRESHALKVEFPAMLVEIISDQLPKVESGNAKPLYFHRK
Experimental: Mineralocorticoid receptor (MR) binding assay: Spodoptera furgiperda (Sf9) insect cells (ATCC accession number CRL-1711) were maintained in culture in EX-CELL™ 420 serum free medium (JRH Biosciences, Inc.) at 27° C.
A recombinant baculovirus containing nucleotide sequences encoding the ligand binding domain of the human mineralocorticoid receptor (hMR) cloned into the pFastBac™ vector was generated using the Bac-to-Bac® Baculovirus Expression System Kit (Invitrogen) following the manufacturer's instructions. This recombinant baculovirus contains nucleotides 2401 through 3168 (SEQ ID NO: 13) of hMR, providing for expression of the ligand binding domain (LBD), amino acid residues 729-984 (SEQ ID NO: 14), of hMR (hMR LBD). Cultured Sf9 insect cells were transfected with this recombinant baculovirus following the manufacturer's instructions.
For the binding assay, a crude lysate of the hMR LBD-expressing insect cells was prepared. The crude lysate was diluted 12.5-fold with binding buffer (20 mM Tris-HCl pH 7.4, 1 mM EDTA, 1 mM dithiothreitol, 20 mM sodium tungstate, 50 mM KCl and 10% glycerol).
For the negative control sample, the diluted lysate was incubated with a 10 nM final concentration of the radioligand [1,2,6,7-^3H] aldosterone (Amersham Biosciences, catalogue # 434) for 3.5 h at 4° C. For test compounds and the positive control sample, the diluted lysate was incubated with various concentrations of test compound or with a 20 μM final concentration of spironolactone (Sigma, S-3378) as a reference compound for 45 min on ice, and was then incubated with a 10 nM final concentration of [1,2,6,7-^3H] aldosterone for 3.5 h at 4° C.
Using a CellHarvester (PerkinElmer, formerly Packard Biosciences), receptor/ligand complexes were retained on 96-well GF/B filters (PerkinElmer, formerly Packard Biosciences) while free radioligand passed through the filters. Scintillation counting of GF/B filter plates was performed using a TopCount NXT (PerkinElmer, formerly Packard Biosciences) to quantitate the amount of [1,2,6,7-^3H] aldosterone bound to the hMR LBD.
The IC50 of a test compound was determined from the concentration of test compound giving half-maximal displacement as obtained by nonlinear least-squares curve fitting to a one-site binding sigmoidal model using Prism 3.0 (Graph Pad Software, Inc., San Diego, US). The calculated IC50 values represent the average values calculated from the results of 1-3 experiments carried out in duplicate.
IC50 and inhibitory ratio calculations: To provide a measure of the potency of each test compound as an antagonist of MR, the IC50 of each test compound (IC50^Test) for ligand binding to MR and the IC50 of the known MR antagonists eplerenone (IC50^Ep) and spironolactone (IC50^Sp) for ligand binding to MR were used to calculate an IC50 ratio (RIC50) according to the following equations: RIC50^Ep/Test=IC50^Ep/IC50^Test and RIC50^Sp/Test=IC50^Sp/IC50^Test.
These individual inhibitory ratios were used to calculate a total inhibitory ratio (IR^TOTAL) according to the following equation: IR^TOTAL=IR^AR/MR+IR^ER/MR+IR^GR/MR+IR^PR/MR. B. Results and Discussion

[2] = biological target: T2, GAL4 DBD-hMR LBD fusion protein (Homo sapiens, UniProt P08235); test: Cell-based luciferase assay, agonist mode (CV-1 cells); settings: 10 μM of compound
T2 construct: expressed in transfected cells; host or cells: CV-1 cells (African green monkey kidney), transient co-transfection with pCMX-GAL4-based vector and Galp3TKLuc reporter
Excerpt: GAL4 DBD-hMR LBD fusion protein expression vector: A pCMX-GAL4-based vector was used for the expression of a fusion protein composed of the amino acids 1-147 of the DNA binding domain of Saccharomyces cerevisiae GAL4 (GAL4 DBD) (SEQ ID NO: 16) and amino acid residues 729-984 of the ligand binding domain of human mineralocorticoid receptor (hMR LBD) (SEQ ID NO: 14). The expression vector contained an expression cassette of the nucleotide sequence for the GAL4 DBD (See SEQ ID NO: 19) ligated to nucleotides 2401 through 3168 of the human mineralocorticoid (hMR) receptor (SEQ ID NO: 13).
In vitro cell culture: CV-1 cells (African green monkey kidney cell line, ATCC accession number CCL-70) were maintained in culture in 90% DMEM medium supplemented by 9% FCS and 1% Penicillin-Streptomycin-L-Glutamine at 37° C. under 8.5% CO2.
These cells were transiently co-transfected with the GAL4 DBD-hMR LBD fusion protein expression vector and the Galp3TKLuc reporter gene vector using the FuGENE 6 Transfection Reagent (Roche) according to the manufacturer's instructions.
Agonist assay: As a positive control, aldosterone (Acros Organics, catalogue # 215360050) was used at a concentration of 100 nM. The negative control sample was 90% DMEM medium supplemented by 9% charcoal-treated FCS and 1% Penicillin-Streptomycin-L-Glutamine containing 0.2% DMSO plus 0.02% ethanol. Positive control, negative control, or 10 μM final concentration of test compound was added to the cells and incubated for 24 hours at 37° C. under 8.5% CO2 before the Luciferase substrate (Promega, catalogue number #E2620) was added. After an incubation period of 5 min at RT, luminescence signals were read on a microplate reader (Molecular Devices/LJL Biosystems). Negative and positive controls were defined as 0% and 100% agonism, respectively. The agonistic potency of test compounds is given in % and was normalized to the positive and negative controls.

T2 sequence (P08235 with tags, fused parts or gaps limits assumed): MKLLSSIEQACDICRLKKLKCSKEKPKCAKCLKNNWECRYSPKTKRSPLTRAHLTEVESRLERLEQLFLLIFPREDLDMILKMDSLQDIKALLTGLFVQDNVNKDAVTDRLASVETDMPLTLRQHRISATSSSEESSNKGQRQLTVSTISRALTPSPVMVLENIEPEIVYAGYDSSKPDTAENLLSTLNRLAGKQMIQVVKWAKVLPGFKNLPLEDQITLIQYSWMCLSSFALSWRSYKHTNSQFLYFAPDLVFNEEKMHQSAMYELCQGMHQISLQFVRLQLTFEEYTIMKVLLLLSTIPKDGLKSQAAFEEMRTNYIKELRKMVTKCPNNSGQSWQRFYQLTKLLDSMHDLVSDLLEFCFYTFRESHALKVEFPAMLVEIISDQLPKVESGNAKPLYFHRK

## CCS[C@@H]1CC2=CC(=O)CC[C@]2(C)C2=CC[C@@]3(C)C(CC[C@@]34CCC(=O)O4)C21 (stereo partly drawn) [Example 13]
[1]
  IR^TOTAL compared with the IR^TOTAL for eplerenone: at least an order of magnitude greater than the IR^TOTAL for eplerenone
  IR^TOTAL compared with the IR^TOTAL for spironolactone: at least an order of magnitude greater than the IR^TOTAL for spironolactone
[2]
  potency for activation of MR relative to aldosterone: at least three orders of magnitude less potent than aldosterone
